Legend:
[1] = target: T1, MAO-A (Homo sapiens, UniProt P21397); assay: Inhibition of human recombinant MAO-A expressed in Pichia pastoris using kynuramine as substrate at 100 uM by horseradish peroxidase coupled-assay relative to control; settings: probe kynuramine
T1 sequence (P21397 whole entry): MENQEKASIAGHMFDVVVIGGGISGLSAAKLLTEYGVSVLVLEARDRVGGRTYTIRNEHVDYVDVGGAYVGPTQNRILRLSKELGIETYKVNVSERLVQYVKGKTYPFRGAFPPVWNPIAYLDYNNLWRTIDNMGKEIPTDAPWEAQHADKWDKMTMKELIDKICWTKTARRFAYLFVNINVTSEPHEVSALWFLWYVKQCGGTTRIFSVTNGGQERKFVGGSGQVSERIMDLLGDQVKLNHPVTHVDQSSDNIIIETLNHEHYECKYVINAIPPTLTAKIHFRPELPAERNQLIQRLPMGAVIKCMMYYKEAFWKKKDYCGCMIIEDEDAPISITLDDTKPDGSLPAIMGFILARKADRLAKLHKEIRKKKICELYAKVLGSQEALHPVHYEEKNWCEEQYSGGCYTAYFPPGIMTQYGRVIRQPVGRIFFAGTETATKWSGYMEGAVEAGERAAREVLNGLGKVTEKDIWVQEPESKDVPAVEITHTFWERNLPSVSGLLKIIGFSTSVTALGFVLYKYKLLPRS

[2] = test system: MV4-11; assay: Antiproliferative activity against human MV4-11 cells incubated for 48 hrs by CellTiter-Fluor cell viability assay; format: functional, cell-based; settings: MV4-11, 48 h
[3] = target: T2, MAO-B (Homo sapiens, UniProt P27338); assay: Inhibition of human recombinant MAO-B expressed in Pichia pastoris using benzylamine as substrate at 100 uM by horseradish peroxidase coupled-assay relative to control; settings: probe benzylamine
T2 sequence (P27338 whole entry): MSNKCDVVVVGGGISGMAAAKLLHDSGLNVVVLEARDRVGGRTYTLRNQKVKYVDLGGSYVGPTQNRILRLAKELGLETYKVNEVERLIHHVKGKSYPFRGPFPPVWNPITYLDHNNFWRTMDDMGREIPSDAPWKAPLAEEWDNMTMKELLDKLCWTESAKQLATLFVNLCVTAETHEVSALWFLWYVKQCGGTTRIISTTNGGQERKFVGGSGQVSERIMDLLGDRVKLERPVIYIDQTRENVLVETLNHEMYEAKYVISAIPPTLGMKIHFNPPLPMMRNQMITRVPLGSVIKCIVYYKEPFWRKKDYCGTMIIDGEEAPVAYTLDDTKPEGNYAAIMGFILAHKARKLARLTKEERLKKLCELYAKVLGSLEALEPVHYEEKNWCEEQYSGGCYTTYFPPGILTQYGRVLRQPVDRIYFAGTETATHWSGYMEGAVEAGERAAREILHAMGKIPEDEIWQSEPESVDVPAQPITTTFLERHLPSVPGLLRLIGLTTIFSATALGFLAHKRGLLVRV

[4] = test system: NB-4; assay: Antiproliferative activity against human NB4 cells incubated for 48 hrs by CellTiter-Fluor cell viability assay; format: functional, cell-based; settings: NB-4, 48 h
[5] = test system: HCT-116; assay: Antiproliferative activity against human HCT116 cells after 48 hrs by MTT assay; format: functional
[6] = test system: SH-SY5Y; assay: Antiproliferative activity against human SH-SY5Y cells after 48 hrs by MTT assay; format: functional
[7] = target: T3, Amine oxidase [flavin-containing] B (Homo sapiens, UniProt P27338); assay: biochemical
T3 sequence (P27338 whole entry): T2 sequence (P27338 whole entry)

[8] = test system: KYSE-150 cell line; assay: Antiproliferative activity against human KYSE150 cells after 48 hrs by MTT assay; format: functional
[9] = target: T4, Amine oxidase [flavin-containing] A (Homo sapiens, UniProt P21397); assay: biochemical
T4 sequence (P21397 whole entry): T1 sequence (P21397 whole entry)

[10] = test system: HeLa; assay: Antiproliferative activity against human HeLa cells after 48 hrs by MTT assay; format: functional
[11] = test system: PC-3; assay: Antiproliferative activity against human PC-3 cells after 48 hrs by MTT assay; format: functional
[12] = target: T3, Amine oxidase [flavin-containing] B; assay: Inhibition of MAO-B (unknown origin) measured after 60 mins by luciferin-based luminescence assay
[13] = target: T5, Lysine-specific histone demethylase 1A (Homo sapiens, UniProt O60341)
[14] = target: T5, Lysine-specific histone demethylase 1A; remark: listed apart in the source
[15] = target: T5, Lysine-specific histone demethylase 1A; remark: listed apart in the source
[16] = target: T4, Amine oxidase [flavin-containing] A
[17] = target: T3, Amine oxidase [flavin-containing] B; assay: Inhibition of human MAO-B expressed in baculovirus infected BTI insect cells by fluorescence method
[18] = target: T4, Amine oxidase [flavin-containing] A; assay: Inhibition of human MAO-A expressed in baculovirus infected BTI insect cells by fluorescence method
[19] = test system: MV4-11; assay: Antiproliferative activity against human MV4-11 cells incubated for 6 days by MTS assay; format: functional, cell-based; settings: MV4-11, 144 h
[20] = target: T4, Amine oxidase [flavin-containing] A; assay: Inhibition of MAO-A (unknown origin) preincubated for 20 mins using 5-hydroxytryptamine as substrate followed by substrate addition and measured after 60 mins
[21] = target: T5, Lysine-specific histone demethylase 1A; assay: Inhibition of human LSD1 expressed in Escherichia coli BL21 (DE3) cells using (ARTK(diMe)QTARKSTGGKAPRKQLA peptide as substrate incubated for 30 mins by HRP reagent based fluorescence method
[22] = target: T3, Amine oxidase [flavin-containing] B; assay: Inhibition of MAO-B (unknown origin) using benzylamine as substrate preincubated for 20 mins followed by substrate addition and measured after 60 mins
[23] = target: T4, Amine oxidase [flavin-containing] A; assay: Inhibition of human MAO-A expressed in baculovirus infected BTI insect cells using tyramine as substrate incubated for 30 mins by peroxidase-coupled assay
[24] = target: T6, Lysine-specific histone demethylase 2 (Homo sapiens, UniProt Q8NB78); assay: Inhibition of LSD2 (unknown origin) using Lys4-dimethylated H3 (1-20) peptide as substrate incubated for 30 mins by peroxidase-coupled assay
T6 sequence (Q8NB78 whole entry): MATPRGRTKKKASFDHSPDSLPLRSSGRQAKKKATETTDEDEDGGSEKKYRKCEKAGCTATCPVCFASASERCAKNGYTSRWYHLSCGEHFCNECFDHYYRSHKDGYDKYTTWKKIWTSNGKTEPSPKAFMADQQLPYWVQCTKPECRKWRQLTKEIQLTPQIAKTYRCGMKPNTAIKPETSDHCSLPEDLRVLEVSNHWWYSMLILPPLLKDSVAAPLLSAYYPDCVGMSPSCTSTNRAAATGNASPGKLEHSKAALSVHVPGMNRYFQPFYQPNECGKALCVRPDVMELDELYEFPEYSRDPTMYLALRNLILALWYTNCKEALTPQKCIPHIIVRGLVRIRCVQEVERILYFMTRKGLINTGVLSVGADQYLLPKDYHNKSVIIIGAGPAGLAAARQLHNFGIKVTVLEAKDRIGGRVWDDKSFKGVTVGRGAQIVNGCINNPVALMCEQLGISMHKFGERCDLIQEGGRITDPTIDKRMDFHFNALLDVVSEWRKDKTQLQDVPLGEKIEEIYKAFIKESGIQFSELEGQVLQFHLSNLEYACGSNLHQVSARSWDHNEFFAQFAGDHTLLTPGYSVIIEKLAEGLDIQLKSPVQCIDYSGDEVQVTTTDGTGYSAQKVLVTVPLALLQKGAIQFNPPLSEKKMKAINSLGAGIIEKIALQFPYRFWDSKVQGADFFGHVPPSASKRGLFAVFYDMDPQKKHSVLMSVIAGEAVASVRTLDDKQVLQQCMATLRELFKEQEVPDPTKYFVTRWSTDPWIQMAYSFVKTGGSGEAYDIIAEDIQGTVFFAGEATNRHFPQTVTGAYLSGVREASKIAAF

[25] = target: T3, Amine oxidase [flavin-containing] B; assay: biochemical; remark: listed apart in the source
[26] = target: T3, Amine oxidase [flavin-containing] B; assay: Inhibition of human MAO-B expressed in baculovirus infected BTI insect cells preincubated for 10 mins followed by substrate addition and measured after 60 mins by luciferin-based luminescence assay
[27] = target: T4, Amine oxidase [flavin-containing] A; assay: Inhibition of human MAO-A expressed in baculovirus infected BTI insect cells preincubated for 10 mins followed by substrate addition and measured after 60 mins by luciferin-based luminescence assay
[28] = test system: HL-60; assay: Antiproliferative activity against human HL-60 cells incubated for 72 hrs by CellTiter-glo assay; format: functional, cell-based; settings: HL-60, 72 h
[29] = test system: U-937; assay: Antiproliferative activity against human U-937 cells incubated for 72 hrs by CellTiter-glo assay; format: functional, cell-based; settings: U-937, 72 h
[30] = test system: OCI-AML-3; assay: Antiproliferative activity against human OCI-AML3 cells incubated for 72 hrs by CellTiter-glo assay; format: functional, cell-based; settings: OCI-AML-3, 72 h
[31] = target: T5, Lysine-specific histone demethylase 1A; assay: Inhibition of His-tagged full length human LSD1 expressed in Escherichia coli BL21 RIPL Codon Plus (DE3) using ARTK(me2)QTARKSTGGKAPRKQLA as substrate preincubated for 10 mins followed by substrate addition by amplex ultra red and HRP reagent based fluorescence method
[32] = test system: Kasumi 1; assay: Antiproliferative activity against human KASUMI-1 cells incubated for 72 hrs by CellTiter-glo assay; format: functional, cell-based; settings: Kasumi 1, 72 h
[33] = test system: MV4-11; assay: Antiproliferative activity against human MV4-11 cells incubated for 72 hrs by CellTiter-glo assay; format: functional, cell-based; settings: MV4-11, 72 h
[34] = test system: THP-1; assay: Antiproliferative activity against human THP-1 cells incubated for 72 hrs by CellTiter-glo assay; format: functional, cell-based; settings: THP-1, 72 h
[35] = target: T5, Lysine-specific histone demethylase 1A; assay: Inhibition of human LSD1 (172 to 833 residues) using Lys4-dimethylated H3 (1-20) peptide as substrate incubated for 30 mins by peroxidase-coupled assay

NC1CC1c1ccc(NC(=O)c2ccc(NC(=O)OCc3ccccc3)cc2)cc1 (centres undefined)
inhibition at 100 µM [1]: 37% | IC50 [2]: 0.4 µM | inhibition at 100 µM [3]: 8% | IC50 [4]: 0.6 µM

NC1CC1c1ccc(OCC[C@H](NC(=O)c2ccccc2)C(=O)NCc2ccccc2)cc1 (some centres undefined)
GI50 [5]: 6 µM | GI50 [6]: 6 µM | IC50 [7]: > 1000 µM | GI50 [8]: 6 µM | IC50 [9]: 290 µM | GI50 [10]: 6 µM | GI50 [11]: 6 µM

CN1CCN(C(=O)CN[C@@H]2C[C@H]2c2ccc(F)nc2)CC1
IC50 [12]: 10.8 µM | IC50 [13]: 0.031 µM | IC50 [14]: 0.007 µM | IC50 [15]: 0.003 µM | IC50 [16]: 12.9 µM

Fc1ccccc1CNC1CC12CCc1ccccc12 (centres undefined)
IC50 [17]: 32 µM | IC50 [18]: 2.5 µM

COc1ccc(CNC2CC23CCc2ccccc23)c(Cl)c1OC (centres undefined)
IC50 [17]: 7 µM | IC50 [18]: 5 µM

CCN(CC)S(=O)(=O)c1ccc([C@H]2C[C@@H]2NC(=O)OC(C)(C)C)cc1
IC50 [19]: 4.9 µM | IC50 [20]: 0.708 µM | IC50 [21]: > 1 µM | IC50 [22]: 0.655 µM

COc1ccccc1CNC1CC12CCc1ccccc12 (centres undefined)
IC50 [17]: 12 µM | IC50 [18]: 5.9 µM

CN1CCN(C(=O)CNC2CC2c2cc(F)cc(F)c2OCc2ccccc2)CC1 (centres undefined)
Ki [23]: > 250 µM | Ki [24]: > 250 µM | Ki [25]: > 250 µM

COc1ccc(Br)cc1CNC1CC12CCc1ccccc12 (centres undefined)
IC50 [17]: 1.2 µM | IC50 [18]: 3.7 µM

Cn1cc(C(=O)Nc2ccc([C@@H]3C[C@H]3NCC3CC3)cc2)cn1
IC50 [26]: > 100 µM | IC50 [27]: > 100 µM

N[C@@H]1C[C@H]1c1ccc(C(=O)NCc2ccccc2)cc1
IC50 [28]: 1.7 µM | IC50 [29]: 1.6 µM | IC50 [30]: 1.8 µM | IC50 [31]: 0.3 µM | IC50 [32]: 0.03 µM | IC50 [33]: 0.18 µM | IC50 [34]: 0.1 µM

N[C@H]1CCN(C(=O)CNC2CC2c2cc(F)cc(F)c2OCc2ccccc2)C1 (some centres undefined)
Ki [23]: > 250 µM | Ki [24]: > 250 µM | Ki [25]: > 250 µM | Ki [35]: 0.56 µM

From ChEMBL document CHEMBL4813911 (J Med Chem, 2020)
